According to patent publication US7943646B2, “Benzamidine derivative, process for the preparation thereof and pharmaceutical composition comprising same” (Dong Wha Pharmaceutical Co., Ltd., priority 2006, dated 2011):
Where two headings read alike, the source gives them in different places.

Experiments:
[1] = system: osteoclast differentiation; assay: Inhibitory effect on osteoclast differentiation, co-culture of bone marrow cells and osteoblast, TRAP staining; type: cell-based, mouse; details: Mus musculus, Osteoclast, 168 h, read-out: inhibitory effect on osteoclast differentiation(%)
Experimental: The effect of the benzamidine derivative of the present invention on osteoclast formation and differentiation process was evaluated via co-culture with an osteoblast.
Tibia was aseptically ectomized from male 6 to 8-week-old ddY mice to harvest bone marrow cells by using a syringe (21G, Korea Green Cross). The bone marrow cells were suspended in 5 mL of an α-MEM medium (Gibco BRL Co., added with sodium bicarbonate (2.0 g/L), streptomycin (100 mg/L) and penicillin ([…]), filtered and then sterilized). The harvested cells were centrifuged at 600×g for 5 mins to collect the whole quantity. To remove the red blood cells in the bone marrow cells, 3 mL of Tris HCl (0.83% NH4Cl, pH 7.5) was added and well mixed. After centrifuging above cells, the numbers of the eukaryotic cells in the harvested bone marrow cells were counted and then immediately used for a co-culture system.
The progenitor bone and the parietal bone were aseptically ectomized from 1 to 2-day-old neonate ICR mice, washed with a phosphate butter solution (PBS) and treated with a mixed enzyme solution (of 0.2% collagenase and 0.1% dispase) sequentially (10, 10, 10, 20, 20 and 20 min), and then 3 to 6 groups of the cells which comprise lot of cells having the characteristics of the osteoblast were intensively collected and washed with a medium (a serum-free α-MEM). The washed cells were cultured in the α-MEM medium containing 10% FBS for 2 to 3 days. After subculturing, the collected cells were used for this experiment, and diluted to a concentration of 1×10^6 cells/mL for storage at −70[…].
The benzamidine derivative of the present invention was dissolved in a sterile distilled water or ethanol to dilute to a desired concentration. The final volume of the sample added to the cell culture medium was set at a ratio of 1:1000.
The bone marrow cells prepared in the above 1-1 and the osteoblast were co-cultured for osteoclast differentiation. Both the bone marrow cells (25,000 cells/cm^2) and the osteoblast (10,000 cells/cm^2) were plated in a 96-well plate using α-MEM medium containing FBS, and then cultured with the samples to be tested for 7 days. Differentiation factors, such as dexamethasone (10^−7 M) and vitamin D3 (10^−8 M), were also co-added to the medium from the first day of cultivation. The medium was changed with a fresh media containing a mixture of the samples and the differentiation factors every 2 to 3 days.
TRAP was used as a marker to measure the matured osteoclast in consideration of its characteristics showing a positive reaction to a TRAP staining solution. The TRAP staining solution was prepared in such the manner that 5 mg of naphtol AS-MS phosphate (sigma N-4875) as a substrate, and 25 mg of a coloring agent (Fast Red Violet LB salt) were dissolved in N,N-dimethylformamide (about 0.5 mL). 50 ml of a 0.1 N NaHCO3 buffer solution containing 50 mM tartaric acid (pH 5.0) was added thereto, and the mixture was stored at a refrigerator prior to use as a staining solution.
After culturing the cells for 7 days, the medium was removed from the wells, the cells were once washed with PBS, and then fixed with PBS containing 10% formalin for 2 to 5 min. The cells were fixed again in a mixed solution of ethanol and acetone (1/1) for about 1 min, and dried off. The cells were further treated by the TRAP staining solution for 15 mins and washed with water and dried off. The osteoclasts with 3 or more nuclei showing a TRAP-positive reaction were counted under a microscopic examination. Each of tests was confirmed over at least three times. The inhibitory effect on osteoclast differentiation of each experimental group, relative to negative controls, was expressed as a percentage (%).

[2] = system: MC3T3; assay: Cytotoxicity test (MTT), MC3T3; type: cell-based; details: 10^−6M, 72 hrs, in comparison with the control group
Experimental: (§1) The cytotoxic effect of the benzamidine derivative of the present invention was evaluated by carrying out the experiment described below.
(§2) The test substance was diluted in an appropriate solvent at a 10^−2 M concentration. This substance was diluted in an appropriate culture medium for the cells used in the cytotoxicity test to a concentration of […], and loaded into a 96-well plate in 100 μl per well. The cell lines to be used in the cytotoxicity test were plated on a 96-well plate in a dose of 1.0×10^4 cells/1OO μl per well and cultured for 72 hrs. 25 μl of MTT [3-(4,5-dimethyl-2-thiazolyl)-2,5-diphenyl-2H-tetrazolium bromide] dissolved in PBS (2 mg/mL) were added before 4 hrs of the end of culture. After completion of the reaction, the plates were centrifuged, the medium was discarded and 100 μl of DMSO was added to dissolve formazan. Finally, the absorbance of the developed plates was measured at 540 nm. The survival rates of the cells were expressed as % concentration values in comparison with the control group.

[3] = system: calvaria; assay: Cytotoxicity test (MTT), calvaria; type: cell-based; details: 10^−6M, 72 hrs, in comparison with the control group
Experimental: as §1, §2

[4] = system: HOS; assay: Cytotoxicity test (MTT), HOS; type: cell-based; details: 10^−6M, 72 hrs, in comparison with the control group
Experimental: as §1, §2

[5] = 1 μm, 7 days co-culture, TRAP-positive osteoclasts with 3 or more nuclei, relative to negative controls

| SMILES | inhibition at 1 µM [1, 5] [%] | survival rates of the cells [2] [%] | survival rates of the cells [3] [%] | survival rates of the cells [4] [%] | inhibition at 1 µM [1] [%] |
| --- | --- | --- | --- | --- | --- |
| N=C(NO)c1ccc(OCCCCCOc2ccc(-c3nc(CN4CCCCC4)sc3CCN3CCOCC3)cc2)cc1 [Example 63, N-hydroxy-4-(5-{4-[5-(2-morpholin-4-yl-ethyl)-2-piperidin-1-yl-methyl-thiazol-4-yl]-phenoxy}-pentyloxy)-benzamidine] | 99.2 | 89.4 | 86.9 | 86.5 | – |
| CC(C)c1nc(-c2ccc(OCCCCCOc3ccc(C(=N)NO)cc3)cc2)c(CCN(C(=O)c2ccncc2)C2CC2)s1 [Example 67, N-hydroxy-4-{5-[4-(5-{2-[cyclopropyl-(pyridine-4-carbonyl)-amino]-ethyl}-2-isopropyl-thiazol-4-yl)-phenoxy]-pentyloxy}-benzamidine] | – | 80.7 | 95.3 | 97.5 | – |
| Cc1nc(-c2ccc(OCCCCCOc3ccc(C(=N)NO)cc3)cc2)c(CCN(CC(C)C)C(=O)c2cccnc2)s1 [Example 66, N-hydroxy-4-{5-[4-(5-{2-[isobutyl-(pyridine-3-carbonyl)-amino]-ethyl}-2-methyl-thiazol-4-yl)-phenoxy]-pentyloxy}-benzamidine] | – | 111.1 | 99.0 | 105.9 | – |
| N=C(NO)c1ccc(OCCCCCOc2ccc(-c3nc(C4CCCCC4)sc3CCN(C(=O)c3cccnc3)C3CC3)cc2)cc1 [Example 68, N-hydroxy-4-{5-[4-(2-cyclohexyl-5-{2-[cyclopropyl-(pyridine-3-carbonyl)-amino]ethyl}-thiazol-4-yl)-phenoxy]-pentyloxy}-benzamidine] | – | 90.3 | 91.4 | 82.9 | – |
| CNc1nc(-c2ccc(OCCCCCOc3ccc(C(=N)N)cc3)cc2)c(CCN2CCOCC2)s1 [Example 52, 4-(5-{4-[2-methylamino-5-(2-morpholin-4-yl-ethyl)-thiazol-4-yl]-phenoxy}-pentyloxy)-benzamidine] | – | 115.6 | 100.1 | 98.8 | – |
| N=C(N)c1ccc(OCCCCCOc2ccc(-c3nc(N4CCOCC4)sc3CCN3CCOCC3)cc2)cc1 [Example 64, 4-(5-{4-[2-morpholin-4-yl-5-(2-morpholin-4-yl-ethyl)-thiazol-4-yl]-phenoxy}-pentyloxy)-benzamidine] | – | 119.8 | 99.4 | 107.8 | – |
| N=C(NO)c1ccc(OCCCCCOc2ccc(-c3nc(-c4cccnc4)sc3CCN3CCSCC3)cc2)cc1 [Example 25, N-hydroxy-4-(5-{4-[2-pyridine-3-yl-5-(2-thiomorpholin-4-yl-ethyl)-thiazol-4-yl]-phenoxy}-pentyloxy)-benzamidine] | – | – | – | – | 65 |
| CCN(CC)CCc1sc(C)nc1-c1ccc(OCCCCCOc2ccc(C(=N)NO)cc2)cc1 [Example 11, N-hydroxy-4-(5-{4-[5-(2-diethylamino-ethyl)-2-methyl-thiazol-4-yl]-phenoxy}-pentyloxy)-benzamidine] | – | – | – | – | 70 |
| Cc1nc(-c2ccc(OCCCCCOc3ccc(C(=N)NO)cc3)cc2)c(CCNC(C)(C)C)s1 [Example 21, N-hydroxy-4-(5-{4-[5-(2-tert-butylamino-ethyl)-2-methyl-thiazol-4-yl]-phenoxy}-pentyloxy)-benzamidine] | 58 | – | – | – | – |
| Cc1nc(-c2ccc(OCCCCCOc3ccc(C(=N)NO)cc3)cc2)c(C(=O)NC(C)C)s1 [Example 70, N-hydroxy-4-{5-[4-(5-isopropylcarbamoyl-2-methyl-thiazol-4-yl)-phenoxy]-pentyloxy}-benzamidine] | 84.8 | – | – | – | – |
| CN1CCN(CCc2sc(-c3cccnc3)nc2-c2ccc(OCCCCCOc3ccc(C(=N)NO)cc3)cc2)CC1 [Example 24, N-hydroxy-4-[5-(4-{5-[2-(4-methyl-piperazin-1-yl)-ethyl]-2-pyridine-3-yl-thiazol-4-yl}-phenoxy)-pentyloxy]-benzamidine] | – | – | – | – | 86 |
| CC(C)c1nc(-c2ccc(OCCCCCOc3ccc(C(=N)NO)cc3)cc2)c(CCNCCN2CCOCC2)s1 [Example 30, N-hydroxy-4-[5-(4-{2-isopropyl-5-[2-(2-morpholin-4-yl-ethylamino)-ethyl]-thiazol-4-yl}-phenoxy)-pentyloxy]-benzamidine] | 78 | – | – | – | – |
| Cc1nc(-c2ccc(OCCCCCOc3ccc(C(=N)NO)cc3)cc2)c(CCN2CCCCC2)s1 [Example 3, N-hydroxy-4-(5-{4-[2-methyl-5-(2-piperidin-1-yl-ethyl)-thiazol-4-yl]-phenoxy}-pentyloxy)-benzamidine] | 90.7 | – | – | – | – |
| Cc1nc(-c2ccc(OCCCCOc3ccc(C(=N)NO)cc3)cc2)c(CCN2CCOCC2)s1 [Example 44, N-hydroxy-4-(4-{4-[2-methyl-5-(2-morpholin-4-yl-ethyl)-thiazol-4-yl]-phenoxy}-butoxy)-benzamidine] | – | 101.3 | 90.6 | 105.6 | – |
| COCCN(CCOC)CCc1sc(C)nc1-c1ccc(OCCCCCOc2ccc(C(=N)NO)cc2)cc1 [Example 20, N-hydroxy-4-{5-[4-(5-{2-[bis-(2-methoxy-ethyl)-amino]-ethyl}-2-methyl-thiazol-4-yl)-phenoxy]-pentyloxy}-benzamidine] | – | – | – | – | 94 |
| N=C(N)c1ccc(OCCCCCOc2ccc(-c3nc(C4CCCCC4)sc3CCN3CCOCC3)cc2)cc1 [Example 45, 4-(5-{4-[2-cyclohexyl-5-(2-morpholin-4-yl-ethyl)-thiazol-4-yl]-phenoxy}-pentyloxy)-benzamidine] | – | 108.2 | 90.5 | 106.9 | – |
| Cc1nc(-c2ccc(OCCCCCOc3ccc(C(=N)NO)cc3)cc2)c(CCNCCCn2ccnc2)s1 [Example 5, N-hydroxy-4-[5-(4-{5-[2-(3-imidazol-1-yl-propylamino)-ethyl]-2-methyl-thiazol-4-yl}-phenoxy)-pentyloxy]-benzamidine] | 93.5 | – | – | – | – |
| CNc1nc(-c2ccc(OCCCCCOc3ccc(C(=N)NO)cc3)cc2)c(CCN2CCN(C)CC2)s1 [Example 48, N-hydroxy-4-[5-(4-{2-methylamino-5-[2-(4-methyl-piperazin-1-yl)-ethyl]-thiazol-4-yl}-phenoxy)-pentyloxy]-benzamidine] | 60.6 | – | – | – | – |
| Cc1nc(-c2ccc(OCCCCCOc3ccc(C(=N)NO)cc3)cc2)c(CCN2CCSCC2)s1 [Example 15, N-hydroxy-4-(5-{4-[2-methyl-5-(2-thiomorpholin-4-yl-ethyl)-thiazol-4-yl]-phenoxy}-pentyloxy)-benzamidine] | 99 | – | – | – | – |
